Experimental data from patent US10618937B2, “Method of treating Alzheimer's disease” (INDUSTRY-ACADEMIC COOPERATION FOUNDATION GYEONGSANG …, priority 2016, dated 2020).

Columns and labels:
Format in all cases: in vivo
APP/PS1 model mice [1] = experiment: Western blot analysis of cortex and hippocampus of APP/PS1 model mice
Method: Male C57BL/6J wild type mice and double transgenic B6.Cg-Tg (APPswe, PSENdE9) 85Dbo Mmjax (APP/PS1) AD-model mice were obtained from Jackson Laboratories (Bar Harbor, Me., USA). The brains of the double transfected mice express Swedish mutation-containing chimeric mouse-human amyloid precursor protein (Mo/HuAPP695swe) and mutant human presenilin 1 protein (PS1-dE9). The mice were fed with an unlimited supply of food and water at an animal breeding ground of a university at a temperature of 23° C., at the relative humidity of 60±10% and in the black and light cycle of 12 h/12 h. […] The maintenance and treatment for mice were performed according to the guidelines of the Animal Ethics Committee (IACUC) issued by Department of Biology, Division of Applied Life Science of Gyeongsang National University in Korea. Experiments according to the present disclosure were conducted according to the guidelines approved by the guidelines of the Animal Ethics Committee (IACUC) issued by Department of Biology, Division of Applied Life Science of Gyeongsang National University in Korea (approval ID: 125).
The novel peptide according to the present disclosure was dissolved in bi-deionized distilled water, and administered while being finally included in physiological saline. The novel peptide according to the present disclosure was intraperitoneal injection (IP) administered to APP/PS1 and wild-type (WT) mice in a dose of 5 mg/kg/day at an interval of 2.5 days for 30 days to 45 days. Wild-type mice and APP/PS1 transfected mice were treated with the same volume of physiological saline, and after behavioral analysis, the animal models were sacrificed for further biochemical and immunohistochemical analysis.
Protein concentrations were measured by using a BIORAD protein assay kit (BIORAD LABORATORIES, CA, USA). Equal amounts of protein (15 to 25 μg) were electrophoresed under the same experimental conditions using 4 to 12% BLOT™ minigel and MES SDS electrophoresis buffer (running buffer) 1×(NOVEX, LIFE TECHNOLOGIES, Kiryat Shmona, Israel), and a broad range prestained protein marker (GANGNAM STAIN™, Intron Biotechnology) was used as the control for the molecular size. To reduce nonspecific binding, the membranes used were blocked with 5% (w/v) skim milk and reacted with a primary antibody (a 1:1000 dilution) overnight at 4° C. After an appropriate reaction with a horseradish peroxidase (HRP)-binding secondary antibody, proteins were detected by using an ECL detection reagent (AMERSHAM PHARMECIA BIOTECH, Uppsala, Sweden) according to the manufacturer's instructions. The X-ray film was scanned and the optical density of the band was analyzed using a densitometry using a computer-based Sigma Gel program, version 1.0 (SPSS, Chicago, Ill., USA).
For use as the primary antibody, anti-amyloid β (Aβ), anti-APP, anti-AdipoR1 (Adiponectin receptor 1), anti-phospho-AMPK, anti-SNAP-25 (Synaptosomal-Associated Protein 25), anti-SAP-102, anti-Syanpatophysin, phospho-Tau (Ser 413), anti-p-mTOR, anti-p-ULK1, and anti-β-actin were used.

normal mouse = experiment: Morris water maze test in normal (wild type) mice; settings: normal mouse treated with peptide, IP
Method: Male C57BL/6J wild type mice and double transgenic B6.Cg-Tg (APPswe, PSENdE9) 85Dbo Mmjax (APP/PS1) AD-model mice were obtained from Jackson Laboratories (Bar Harbor, Me., USA). The brains of the double transfected mice express Swedish mutation-containing chimeric mouse-human amyloid precursor protein (Mo/HuAPP695swe) and mutant human presenilin 1 protein (PS1-dE9). The mice were fed with an unlimited supply of food and water at an animal breeding ground of a university at a temperature of 23° C., at the relative humidity of 60±10% and in the black and light cycle of 12 h/12 h. […]
The Morris Underwater Maze Test System was constructed as a circular water tank with a diameter of 100 cm and a height of 40 cm containing 15.5 cm depth of water (temperature of 23±1° C.) which was opaque with white ink added. […] The delay time for escaping from the water maze (the time to find the hidden escape platform) was calculated for each trial. […] For the probe experiment, the platform was removed, each mouse was allowed to freely swim for 60 seconds, the amount of time the mouse spent in the target quadrant was measured, and the number of platform positions the mouse passed by (where the platform was located during the hidden platform training). […] All data were recorded by using video-tracking software (SMART, Panlab Harward Apparatus, Bioscience Company, Holliston, Mass., USA).

APP/PS1 model mice [2] = experiment: Y-maze test; settings: 45 days after IP administration
Method: Male C57BL/6J wild type mice and double transgenic B6.Cg-Tg (APPswe, PSENdE9) 85Dbo Mmjax (APP/PS1) AD-model mice were obtained from Jackson Laboratories (Bar Harbor, Me., USA). The brains of the double transfected mice express Swedish mutation-containing chimeric mouse-human amyloid precursor protein (Mo/HuAPP695swe) and mutant human presenilin 1 protein (PS1-dE9). The mice were fed with an unlimited supply of food and water at an animal breeding ground of a university at a temperature of 23° C., at the relative humidity of 60±10% and in the black and light cycle of 12 h/12 h. When the mice reached 10 months of age, they were transferred to the injection and behavior observation room for 1 week for purification. The maintenance and treatment for mice were performed according to the guidelines of the Animal Ethics Committee (IACUC) issued by Department of Biology, Division of Applied Life Science of Gyeongsang National University in Korea. Experiments according to the present disclosure were conducted according to the guidelines approved by the guidelines of the Animal Ethics Committee (IACUC) issued by Department of Biology, Division of Applied Life Science of Gyeongsang National University in Korea (approval ID: 125). […]
Alteration behavior ratio (%) was calculated as [set of overlapping triplets (consecutive entry into 3 different arms)/total entry−2]×100. […]

[3] = hippocampus of APP/PS1 mice, 9 months and 12 months
[4] = hippocampus, 9 months and 12 months
[5] = hippocampus, 9 months and 12 months after treatment

## RGPCG (adiponectin receptor-activating peptide) [5AA1]
APP/PS1 model mice [1]; APP/PS1 mice
  expression of p-ULK1 protein: suppression of the expression
  expression of p-mTOR protein: suppression of the expression
APP/PS1 model mice [1]; cortex of APP/PS1 mice
  APP in the cortex: statistically significantly reduced
  amyloid-β oligomer (Aβ oligomer) in the cortex: statistically significantly reduced
APP/PS1 model mice [1]; hippocampus of APP/PS1 mice
  expression level of p-Tau (Ser404): remarkably decreased levels
  expression level of p-Tau (Ser413): remarkably decreased levels
APP/PS1 model mice [1]; [3]
  expression level of AdipoR1: remarkably increased levels
  expression level of SIRT-1: remarkably increased levels
  expression level of pAMPK: remarkably increased levels
APP/PS1 model mice [1]; [4]
  expression level of AAP in the hippocampus: decreased
  expression level of Aβ in the hippocampus: decreased
APP/PS1 model mice [1]; [5]
  expression level of SAP-102: remarkably increased levels
  expression level of SNAP-25: remarkably increased levels
  expression level of Synaptophysin: remarkably increased levels
Normal mouse
  latency (time to find the hidden escape platform): less than 10 seconds
APP/PS1 model mice [2]
  spontaneous alteration: restored
